Results as given in EP0286316A1, “1,2,4-Trioxane Derivatives” (Jefford, Charles W., priority 1987, dated 1988).

Columns and labels:
[1] = system: Plasmodium falciparum chloroquine-resistant clone: Indochina-W2 (IndCh-W2); test: in vitro anti-malarial activity, semiautomated microdilution technique, chloroquine-resistant clone; assay type: cell-based; conditions: for I-QHS: index of activity (IC50) relative to Qinghaosu under the same conditions; for I-CHLQ: index of activity (IC50) relative to chloroquine under the same conditions
Description: (§1) Determination of anti-malarial activity of the compounds was effected according to the methods published by R E Desjardins et al and W K Milhous et al (Desjardins, R.E., C.J. Cranfield, D.E. Haynes, and J.D. Chulay. 1979. Quantitative assessment of anitmalarial activity in vitro by a semiautomated microdilution technique. Antimicrob. Agents Chemother. 16:710-718. Milhous, W.K., N.F. Weatherley, J.H. Bowdre, and R.E. Desjardins. 1985. In vitro activities of and mechanisms of resistance to antifol antimalarials. Antimicrob. Agents Chemother. 27:525-530). For such determinations, the following clones of Plasmodium falciparum were used: chloroquine-resistant clone: Indochina-W2 (IndCh-W2) chloroquine-sensitive clone: Sierra Leone-D6 (SL-D6) The activity measured was then compared as indexes under the same conditions to the activity of Qinghaosu (I-QHS) and chloroquine (I-CHLQ), respectively. The indexes (I) provide a measure of the activity of the 1,2,4-trioxane derivatives tested in relation to the activity of the known anti-malarial substances.

[2] = system: Plasmodium falciparum chloroquine-sensitive clone: Sierra Leone-D6 (SL-D6); test: in vitro anti-malarial activity, semiautomated microdilution technique, chloroquine-sensitive clone; assay type: cell-based; conditions: clone S6-D6; for I-QHS: index of activity (IC50) relative to Qinghaosu under the same conditions; for I-CHLQ: index of activity (IC50) relative to chloroquine under the same conditions
Description: as §1

[3] = system: mefloquine-resistant clones of Plasmodium falciparum (MEF-W2); test: in vitro anti-malarial activity, mefloquine-resistant clones; assay type: cell-based; conditions: index of activity (IC50) relative to Qinghaosu; clone MEF-W2
Description: as §1
Certain derivatives of 1,2,4-trioxane listed below were tested against mefloquine-resistant clones of Plasmodium falciparum (MEF-W2), according to the method previously cited.

[4] = system: chloroquine-resistant strains of P. falciparum; conditions: cited from earlier work
[5] = system: mixed lymphocyte reaction; test: immunomodulatory activity (in vitro mitogenic assay; mixed lymphocyte reaction); assay type: cell-based
Procedure: Several of the compounds mentioned in Examples 1 to 17 were also tested for immunomodulatory activity (in vitro mitogenic assay; mixed lymphocyte reaction).

SMILES	I-QHS [1]	I-QHS [2]	I-CHLQ [1]	I-CHLQ [2]	I-QHS [3]	activity against chloroquine-resistant strains of P. falciparum [4]	immunomodulatory activity [5]
CCOC(=O)CCCC1(C)OO[C@]2(c3ccccc3)CC(c3ccccc3)=C[C@@H]2O1 (stereo partly drawn) [Compound 18]	0.09	0.28					
O[C@@H]1C(c2ccccc2)=C[C@@]2(c3ccccc3)OOC3(CCCC3)O[C@@H]12 [Compound 11]	4.7	1.85	73.8	1.16			
CC1(C)OO[C@]2(c3ccccc3)C=C(c3ccccc3)[C@@H](O)[C@@H]2O1 [Compound 2]	0.12	0.25	5.4	0.27	0.10		
C1=C(c2ccccc2)C[C@@]2(c3ccccc3)OOC3(CCCCC3)O[C@@H]12 [Compound 5]	0.26	0.20	1.5	0.20			
C[C@@H]1CC[C@H]2[C@@H](C)C(=O)O[C@@H]3O[C@@]4(C)CC[C@@H]1[C@]32OO4 [Qinghaosu]						remarkably active	
O=C1C(c2ccccc2)=C[C@@]2(c3ccccc3)OOC3(CCCCC3)O[C@@H]12 [Compound 15]	3.5	1.93					
OO[C@@H]1C(c2ccccc2)=C[C@@]2(c3ccccc3)OOC3(CCCCC3)O[C@@H]12 [Compound 13]	2.2	1.47	33.9	0.93			
C1=C(c2ccccc2)C[C@@]2(c3ccccc3)OOC3(CCOCC3)O[C@@H]12 [Compound 12]	18.7	1.10	295.3	0.67			most important activity
CC(C)OC(=O)O[C@@H]1C(c2ccccc2)=C[C@@]2(c3ccccc3)OOC(C)(C)O[C@@H]12 [Compound 8]	0.10	0.16	4.2	0.18			
CC1(C)OO[C@]2(c3ccccc3)C=C(c3ccccc3)C(=O)[C@@H]2O1 [Compound 9]	0.08	0.20	3.5	0.21			
CC1(C)OO[C@]2(c3ccccc3)C=C(c3ccccc3)[C@@H](OC(=O)c3ccccc3F)[C@@H]2O1 [Compound 7]	0.04	0.05	1.6	0.06			
O=C1CCC2(CC1)OO[C@]1(c3ccccc3)CC(c3ccccc3)=C[C@@H]1O2 (racemic) [Compound 17]	2.1	1.06					
CC(C)CC(=O)O[C@@H]1C(c2ccccc2)=C[C@@]2(c3ccccc3)OOC(C)(C)O[C@@H]12 [Compound 10]	0.04	0.09	1.7	0.10			
O[C@@H]1C(c2ccccc2)=C[C@@]2(c3ccccc3)OOC3(CCCCC3)O[C@@H]12 [Compound 16]	1.6	0.49					
CC1(C)OO[C@]2(c3ccccc3)CC(c3ccccc3)=C[C@@H]2O1 [Compound 1]	0.13	0.18	5.7	0.20	0.15		
CCC1(C)OO[C@]2(c3ccccc3)CC(c3ccccc3)=C[C@@H]2O1 (stereo partly drawn) [Compound 21]	0.075	0.36					
C1=C(c2ccccc2)C[C@@]2(c3ccccc3)OOC3(CCC4(CC3)OCCO4)O[C@@H]12 (racemic) [Compound 20]	0.67	0.39					
C1=C(c2ccccc2)C[C@@]2(c3ccccc3)OOC3(CCCC3)O[C@@H]12 [Compound 4]	2.1	0.79	12.2	0.82			
